Assay results taken from PubChem BioAssay (NCI).
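Where inhibition never reached the appropriate level, the endpoint shown equals the highest concentration tested. Otherwise, values were interpolated linearly from a five-concentration, 48-hour dose response in 96-well plates. At the TGI there is no net growth.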

Test system: K-562 leukemia
Test: NCI-60 cell line screen, 48 h

**Q.** `c1nc(OCC2CCCCC2)c2[nH]cnc2n1` was tested. Which TGI did it give?
**A.** Its TGI is over 100 µM.

**Q.** How did the TGI turn out when `Oc1cn(-c2ccc(Cl)cc2)nc1-c1nnc(-c2ccccc2)o1` was run?
**A.** The TGI was 19.6 µM.

**Q.** For `COc1ccc(N2C(=O)/C(=C(\C)c3cc4ccccc4oc3=O)N=C2c2cc([N+](=O)[O-])ccc2Cl)cc1`, which TGI is on record?
**A.** Its TGI is over 100 µM.

**Q.** With `O=C(O)CC(CC(=O)O)C(=O)O` as the molecule, how does the TGI read?
**A.** The TGI was over 100 µM.

**Q.** `CC(=O)N(C)c1ccc(Nc2cc(C)[nH]c3ccc4ncnc4c23)cc1` was tested. Which TGI did it give?
**A.** The TGI was 74 µM.

**Q.** Which TGI does the source give for `FC(F)(F)c1ccc(N=C/C=C(/Nc2ccc(C(F)(F)F)cc2)c2ccc(Cl)cc2)cc1` here?
**A.** Its TGI is over 100 µM.

**Q.** `CCCCN(CCCC)CC(O)c1cc(-c2ccc(C(F)(F)F)cc2)nc(-c2ccc(C(F)(F)F)cc2)c1` (centres undefined) was tested. Which TGI did it give?
**A.** Its TGI is over 100 µM.

**Q.** `CC(C)(C)[Si](OC1CC(n2cnc3c(N)ncnc32)OC1CO)(c1ccccc1)c1ccccc1` (centres undefined) was tested. Which TGI did it give?
**A.** Its TGI is over 100 µM.

**Q.** How did the TGI turn out when `NS(=O)(=O)c1ccc(N=Nc2nc3[nH]c(=O)[nH]c(=O)c3[nH]2)cc1` was run?
**A.** Its TGI is over 100 µM.

**Q.** `CC1=CC(C)C/C=C/C2C3OC3(C)C(C)C3C(Cc4c[nH]c5ccccc45)NC(=O)C23C(=O)C=CC(=O)C1O` (centres undefined) was tested. Which TGI did it give?
**A.** The TGI was over 100 µM.

**Q.** With `O=C(O)c1ccc(Nc2c3ccccc3nc3ccccc23)cc1` as the molecule, how does the TGI read?
**A.** Its TGI is over 100 µM.

**Q.** `Cc1cc(C)n(C(=C(C(Cl)=C(Cl)Cl)[N+](=O)[O-])n2nc(C)cc2C)n1` was tested. Which TGI did it give?
**A.** The TGI was 5 µM.

**Q.** For `COc1ccc(C2COc3cc(OC(C)=O)c(OC(C)=O)cc3C2)cc1` (centres undefined), which TGI is on record?
**A.** The TGI was 80 µM.

**Q.** With `CCOc1cc2c(OCc3ccccc3)cc3c4cc(OC)c(OC)cc4c[n+](C)c3c2cc1OC` as the molecule, how does the TGI read?
**A.** The TGI was over 42.6 µM.

**Q.** How did the TGI turn out when `C/C(=N\NC(=S)N1CCCCC1)c1nc2ncccc2[nH]1` was run?
**A.** Its TGI is 43.7 µM.

Test system: HT29 colon
Test: NCI-60 cell line screen, 48 h

**Q.** How did the TGI turn out when `c1nc(OCC2CCCCC2)c2[nH]cnc2n1` was run?
**A.** Its TGI is over 100 µM.

**Q.** For `Oc1cn(-c2ccc(Cl)cc2)nc1-c1nnc(-c2ccccc2)o1`, which TGI is on record?
**A.** The TGI was 27.6 µM.

**Q.** With `COc1ccc(N2C(=O)/C(=C(\C)c3cc4ccccc4oc3=O)N=C2c2cc([N+](=O)[O-])ccc2Cl)cc1` as the molecule, how does the TGI read?
**A.** Its TGI is over 100 µM.

**Q.** With `O=C(O)CC(CC(=O)O)C(=O)O` as the molecule, how does the TGI read?
**A.** Its TGI is over 100 µM.

**Q.** With `CC(=O)N(C)c1ccc(Nc2cc(C)[nH]c3ccc4ncnc4c23)cc1` as the molecule, how does the TGI read?
**A.** Its TGI is 34 µM.

**Q.** With `FC(F)(F)c1ccc(N=C/C=C(/Nc2ccc(C(F)(F)F)cc2)c2ccc(Cl)cc2)cc1` as the molecule, how does the TGI read?
**A.** The TGI was 24.8 µM.

**Q.** How did the TGI turn out when `CCCCN(CCCC)CC(O)c1cc(-c2ccc(C(F)(F)F)cc2)nc(-c2ccc(C(F)(F)F)cc2)c1` (centres undefined) was run?
**A.** The TGI was over 100 µM.

**Q.** With `CC(C)(C)[Si](OC1CC(n2cnc3c(N)ncnc32)OC1CO)(c1ccccc1)c1ccccc1` (centres undefined) as the molecule, how does the TGI read?
**A.** The TGI was 30.2 µM.

**Q.** How did the TGI turn out when `NS(=O)(=O)c1ccc(N=Nc2nc3[nH]c(=O)[nH]c(=O)c3[nH]2)cc1` was run?
**A.** Its TGI is over 100 µM.

**Q.** For `CC1=CC(C)C/C=C/C2C3OC3(C)C(C)C3C(Cc4c[nH]c5ccccc45)NC(=O)C23C(=O)C=CC(=O)C1O` (centres undefined), which TGI is on record?
**A.** Its TGI is 6.66 µM.

**Q.** How did the TGI turn out when `O=C(O)c1ccc(Nc2c3ccccc3nc3ccccc23)cc1` was run?
**A.** The TGI was over 100 µM.

**Q.** With `Cc1cc(C)n(C(=C(C(Cl)=C(Cl)Cl)[N+](=O)[O-])n2nc(C)cc2C)n1` as the molecule, how does the TGI read?
**A.** The TGI was 11.5 µM.

**Q.** `COc1ccc(C2COc3cc(OC(C)=O)c(OC(C)=O)cc3C2)cc1` (centres undefined) was tested. Which TGI did it give?
**A.** The TGI was 56.1 µM.

**Q.** For `CCOc1cc2c(OCc3ccccc3)cc3c4cc(OC)c(OC)cc4c[n+](C)c3c2cc1OC`, which TGI is on record?
**A.** The TGI was 11.1 µM.

**Q.** Which TGI does the source give for `C/C(=N\NC(=S)N1CCCCC1)c1nc2ncccc2[nH]1` here?
**A.** Its TGI is over 100 µM.

Test system: A498 renal
Test: NCI-60 cell line screen, 48 h

**Q.** With `Oc1cn(-c2ccc(Cl)cc2)nc1-c1nnc(-c2ccccc2)o1` as the molecule, how does the TGI read?
**A.** Its TGI is 56.3 µM.

**Q.** Which TGI does the source give for `COc1ccc(N2C(=O)/C(=C(\C)c3cc4ccccc4oc3=O)N=C2c2cc([N+](=O)[O-])ccc2Cl)cc1` here?
**A.** Its TGI is 82.6 µM.

**Q.** For `O=C(O)CC(CC(=O)O)C(=O)O`, which TGI is on record?
**A.** The TGI was over 100 µM.

**Q.** Which TGI does the source give for `CC(=O)N(C)c1ccc(Nc2cc(C)[nH]c3ccc4ncnc4c23)cc1` here?
**A.** Its TGI is 25.2 µM.

**Q.** Which TGI does the source give for `CCCCN(CCCC)CC(O)c1cc(-c2ccc(C(F)(F)F)cc2)nc(-c2ccc(C(F)(F)F)cc2)c1` (centres undefined) here?
**A.** Its TGI is over 100 µM.

**Q.** For `CC(C)(C)[Si](OC1CC(n2cnc3c(N)ncnc32)OC1CO)(c1ccccc1)c1ccccc1` (centres undefined), which TGI is on record?
**A.** Its TGI is 32.9 µM.

**Q.** How did the TGI turn out when `NS(=O)(=O)c1ccc(N=Nc2nc3[nH]c(=O)[nH]c(=O)c3[nH]2)cc1` was run?
**A.** Its TGI is over 100 µM.

**Q.** For `CC1=CC(C)C/C=C/C2C3OC3(C)C(C)C3C(Cc4c[nH]c5ccccc45)NC(=O)C23C(=O)C=CC(=O)C1O` (centres undefined), which TGI is on record?
**A.** Its TGI is 0.935 µM.

**Q.** Which TGI does the source give for `O=C(O)c1ccc(Nc2c3ccccc3nc3ccccc23)cc1` here?
**A.** Its TGI is over 100 µM.

**Q.** `Cc1cc(C)n(C(=C(C(Cl)=C(Cl)Cl)[N+](=O)[O-])n2nc(C)cc2C)n1` was tested. Which TGI did it give?
**A.** Its TGI is 8.59 µM.

**Q.** With `COc1ccc(C2COc3cc(OC(C)=O)c(OC(C)=O)cc3C2)cc1` (centres undefined) as the molecule, how does the TGI read?
**A.** The TGI was 8.32 µM.

**Q.** Which TGI does the source give for `CCOc1cc2c(OCc3ccccc3)cc3c4cc(OC)c(OC)cc4c[n+](C)c3c2cc1OC` here?
**A.** Its TGI is over 76.3 µM.

**Q.** With `C/C(=N\NC(=S)N1CCCCC1)c1nc2ncccc2[nH]1` as the molecule, how does the TGI read?
**A.** Its TGI is 65.5 µM.

Test system: UACC-257 melanoma
Test: NCI-60 cell line screen, 48 h

**Q.** `c1nc(OCC2CCCCC2)c2[nH]cnc2n1` was tested. Which TGI did it give?
**A.** The TGI was over 100 µM.

**Q.** For `Oc1cn(-c2ccc(Cl)cc2)nc1-c1nnc(-c2ccccc2)o1`, which TGI is on record?
**A.** The TGI was 21.6 µM.

**Q.** `COc1ccc(N2C(=O)/C(=C(\C)c3cc4ccccc4oc3=O)N=C2c2cc([N+](=O)[O-])ccc2Cl)cc1` was tested. Which TGI did it give?
**A.** Its TGI is over 100 µM.

**Q.** With `O=C(O)CC(CC(=O)O)C(=O)O` as the molecule, how does the TGI read?
**A.** The TGI was over 100 µM.

**Q.** With `CC(=O)N(C)c1ccc(Nc2cc(C)[nH]c3ccc4ncnc4c23)cc1` as the molecule, how does the TGI read?
**A.** Its TGI is 26.7 µM.

**Q.** For `FC(F)(F)c1ccc(N=C/C=C(/Nc2ccc(C(F)(F)F)cc2)c2ccc(Cl)cc2)cc1`, which TGI is on record?
**A.** Its TGI is 38.3 µM.

**Q.** Which TGI does the source give for `CCCCN(CCCC)CC(O)c1cc(-c2ccc(C(F)(F)F)cc2)nc(-c2ccc(C(F)(F)F)cc2)c1` (centres undefined) here?
**A.** The TGI was over 100 µM.

**Q.** How did the TGI turn out when `CC(C)(C)[Si](OC1CC(n2cnc3c(N)ncnc32)OC1CO)(c1ccccc1)c1ccccc1` (centres undefined) was run?
**A.** The TGI was over 100 µM.

**Q.** `NS(=O)(=O)c1ccc(N=Nc2nc3[nH]c(=O)[nH]c(=O)c3[nH]2)cc1` was tested. Which TGI did it give?
**A.** The TGI was over 100 µM.

**Q.** With `CC1=CC(C)C/C=C/C2C3OC3(C)C(C)C3C(Cc4c[nH]c5ccccc45)NC(=O)C23C(=O)C=CC(=O)C1O` (centres undefined) as the molecule, how does the TGI read?
**A.** The TGI was 16.4 µM.

**Q.** Which TGI does the source give for `O=C(O)c1ccc(Nc2c3ccccc3nc3ccccc23)cc1` here?
**A.** The TGI was over 100 µM.

**Q.** `Cc1cc(C)n(C(=C(C(Cl)=C(Cl)Cl)[N+](=O)[O-])n2nc(C)cc2C)n1` was tested. Which TGI did it give?
**A.** Its TGI is 11.5 µM.

**Q.** For `COc1ccc(C2COc3cc(OC(C)=O)c(OC(C)=O)cc3C2)cc1` (centres undefined), which TGI is on record?
**A.** The TGI was 46.5 µM.

**Q.** With `CCOc1cc2c(OCc3ccccc3)cc3c4cc(OC)c(OC)cc4c[n+](C)c3c2cc1OC` as the molecule, how does the TGI read?
**A.** The TGI was 4.95 µM.

**Q.** How did the TGI turn out when `C/C(=N\NC(=S)N1CCCCC1)c1nc2ncccc2[nH]1` was run?
**A.** Its TGI is 31.9 µM.

Test system: SK-OV-3 ovarian
Test: NCI-60 cell line screen, 48 h

**Q.** `c1nc(OCC2CCCCC2)c2[nH]cnc2n1` was tested. Which TGI did it give?
**A.** Its TGI is over 100 µM.

**Q.** Which TGI does the source give for `Oc1cn(-c2ccc(Cl)cc2)nc1-c1nnc(-c2ccccc2)o1` here?
**A.** Its TGI is over 74 µM.

**Q.** With `COc1ccc(N2C(=O)/C(=C(\C)c3cc4ccccc4oc3=O)N=C2c2cc([N+](=O)[O-])ccc2Cl)cc1` as the molecule, how does the TGI read?
**A.** Its TGI is over 100 µM.

**Q.** `O=C(O)CC(CC(=O)O)C(=O)O` was tested. Which TGI did it give?
**A.** Its TGI is over 100 µM.

**Q.** How did the TGI turn out when `CC(=O)N(C)c1ccc(Nc2cc(C)[nH]c3ccc4ncnc4c23)cc1` was run?
**A.** The TGI was 35.8 µM.

**Q.** How did the TGI turn out when `FC(F)(F)c1ccc(N=C/C=C(/Nc2ccc(C(F)(F)F)cc2)c2ccc(Cl)cc2)cc1` was run?
**A.** Its TGI is 39.1 µM.
